Structures are written as SMILES.

One data set relates to mice. Briefly: In vivo delivery of FLuc-mRNA lipid nanoparticles in mice, in vivo imaging (IVIS). The essentials: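 Mice (n=3) received about 75 μL FLuc-mRNA LNP per mouse intramuscularly (rectus femoris), intravenously (tail vein), intraperitoneally or subcutaneously (back). After injection, D-luciferin (200 μL, 15 mg/mL) was given i.p. 10-15 min before IVIS imaging.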
Data set [1] is described as follows: Particle size and PDI of nucleic acid lipid nanoparticle preparations by dynamic light scattering. It counts as physicochemical. The essentials:
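Size read by DLS after diluting the LNP preparation (approx. 0.04 mg/mL mRNA) in ultrapure water with gentle pipette mixing. The same sample, recovered and diluted further with water, was then used for zeta potential measurement.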

Where [2] appears, read: DMG-PEG2000:DSPC:Chol:Lipid 1.40:11.15:38.95:48.50, N/P 30, IM, whole body scan.
Where [3] appears, read: DMG-PEG2000:DSPC:Chol:Lipid 1.40:11.15:38.95:48.50, N/P 30, IV, body (whole body scan).
The mark [4] stands for this setting: DMG-PEG2000:DSPC:Chol:Lipid 1.40:11.15:38.95:48.50, N/P 30, mRNA LNP.
[5] abbreviates: IM, DMG-PEG2000:DSPC:Chol:compound 1.40:11.15:38.95:48.50, N/P 30, Fluc-mRNA.
Where [6] appears, read: DMG-PEG2000:DSPC:Chol:compound 1.40:11.15:38.95:48.50, N/P 30.
Where [7] appears, read: DMG-PEG2000:DSPC:Chol:Lipid 1.40:11.15:38.95:48.50, N/P 30, IV, liver.
[8] abbreviates: DMG-PEG2000:DSPC:Chol:Lipid 1.40:11.15:38.95:48.50, N/P 30, IV, lung.
The mark [9] stands for this setting: DMG-PEG2000:DSPC:Chol:Lipid 1.40:11.15:38.95:48.50, N/P 30, IV, spleen.
Where [10] appears, read: DMG-PEG2000:DSPC:Chol:Lipid 1.50:11.50:52.00:35.00, N/P 18, IV, liver.
Where [11] appears, read: DMG-PEG2000:DSPC:Chol:Lipid 1.50:11.50:52.00:35.00, N/P 18, IV, lung.
[12] abbreviates: DMG-PEG2000:DSPC:Chol:Lipid 1.50:11.50:52.00:35.00, N/P 18, IV, spleen.
[13] abbreviates: DMG-PEG2000:DSPC:Chol:Lipid 1.50:11.50:52.00:35.00, N/P 18, mRNA LNP.
Setting [14] is: DMG-PEG2000:DSPC:Chol:compound 1.40:11.15:38.95:48.50, N/P 20.
[15] abbreviates: DMG-PEG2000:DSPC:Chol:Lipid 1.40:11.15:38.95:48.50, N/P 18, mRNA LNP.
Setting [16] is: DMG-PEG2000:DSPC:Chol:Lipid 1.00:11.50:22.50:65.00, N/P 65, IV, liver.
Setting [17] is: DMG-PEG2000:DSPC:Chol:Lipid 1.00:11.50:22.50:65.00, N/P 65, IV, lung.
[18] abbreviates: DMG-PEG2000:DSPC:Chol:Lipid 1.00:11.50:22.50:65.00, N/P 65, IV, spleen.
[19] abbreviates: DMG-PEG2000:DSPC:Chol:Lipid 2.50:11.50:51.00:35.00, N/P 50, IV, liver.
The mark [20] stands for this setting: DMG-PEG2000:DSPC:Chol:Lipid 2.50:11.50:51.00:35.00, N/P 50, IV, lung.
The mark [21] stands for this setting: DMG-PEG2000:DSPC:Chol:Lipid 2.50:11.50:51.00:35.00, N/P 50, IV, spleen.
The mark [22] stands for this setting: DMG-PEG2000:DSPC:Chol:Lipid 1.00:11.50:22.50:65.00, N/P 65, mRNA LNP.
[23] abbreviates: DMG-PEG2000:DSPC:Chol:Lipid 1.00:16.00:48.00:35.00, N/P 35, mRNA LNP.
Where [24] appears, read: DMG-PEG2000:DSPC:Chol:Lipid 1.00:16.00:63.00:20.00, N/P 35, mRNA LNP.
Where [25] appears, read: DMG-PEG2000:DSPC:Chol:Lipid 2.50:11.50:51.00:35.00, N/P 50, mRNA LNP.
[26] abbreviates: DMG-PEG2000:DSPC:Chol:compound 1.00:10.00:33.00:56.00, N/P 42.

With `CCCCCCCCCCCCOC(=O)C(O)CN(C)CCN(C)CCN(C)CC(O)C(=O)OCCCCCCCCCCCC` (stereo not drawn) [Compound L0276], the values for the IVIS in the data set with mice (setting [2]) and in the data set on mice (setting [3]) were 1.81 × 10^6 and 1.60 × 10^5, respectively. This compound also returned a PDI in data set [1] (setting [4]) of 0.23 ± 0.02. The Particle size in data set [1] (setting [4]) is reported as 98.58 ± 2.89 nm.
Turning to `CCCCCCC(CCCCCC)C(=O)OCCCCOC(=O)C(O)CN(CCN(C)CCN(CC(O)C(=O)OCCCCOC(=O)C(CCCCCC)CCCCCC)CC(O)C(=O)OCCCCOC(=O)C(CCCCCC)CCCCCC)CC(O)C(=O)OCCCCOC(=O)C(CCCCCC)CCCCCC` (stereo not drawn) [Compound L0297], the IVIS stood at 8.34E+07 in the data set with mice (setting [5]); 1.64E+08 in the data set on mice (IV, body, DMG-PEG2000:DSPC:Chol:compound 1.40:11.15:38.95:48.50, N/P 30, Fluc-mRNA); 3.82E+07 with mice (IV, liver, DMG-PEG2000:DSPC:Chol:compound 1.40:11.15:38.95:48.50, N/P 30, Fluc-mRNA); 1.44E+07 in the data set on mice (IV, lung, DMG-PEG2000:DSPC:Chol:compound 1.40:11.15:38.95:48.50, N/P 30, Fluc-mRNA); 5.59E+07 in the data set with mice (IV, spleen, DMG-PEG2000:DSPC:Chol:compound 1.40:11.15:38.95:48.50, N/P 30, Fluc-mRNA). The “% of organ targeting” value in the data set on mice (IV, liver, DMG-PEG2000:DSPC:Chol:compound 1.40:11.15:38.95:48.50, N/P 30) is given as 35.19%; in the data set on mice (IV, lung, DMG-PEG2000:DSPC:Chol:compound 1.40:11.15:38.95:48.50, N/P 30), 13.24%; in the data set on mice (IV, spleen, DMG-PEG2000:DSPC:Chol:compound 1.40:11.15:38.95:48.50, N/P 30), 51.57%. Besides, the PDI in data set [1] (setting [6]) came to 0.13. Further, in data set [1] (setting [6]), the “Particle size (nm)” value was found to be 119.00 nm.
Turning to `CCCCCCCCCCCCNC(=O)C(O)CN(CCCN(CCCCO)CCCN(CC(O)C(=O)NCCCCCCCCCCCC)CC(O)C(=O)NCCCCCCCCCCCC)CC(O)C(=O)NCCCCCCCCCCCC` (stereo not drawn) [Compound L0282], the IVIS in the data set with mice (setting [2]) is listed as 5.98 × 10^6; in the data set with mice (setting [3]), 1.50 × 10^7; in the data set with mice (setting [7]) it was 6.77 × 10^5; in the data set on mice (setting [8]), 1.50 × 10^7; in the data set on mice (setting [9]) it was 8.93 × 10^6; with mice (DMG-PEG2000:DSPC:Chol:Lipid 1.50:11.50:52.00:35.00, N/P 18, IV, body), 3.77 × 10^6. Further, the results for the IVIS with mice (setting [10]), with mice (setting [11]) and in the data set on mice (setting [12]) were 6.44 × 10^5, 7.41 × 10^5 and 7.58 × 10^6, respectively. The “% of organ targeting” value with mice (setting [7]) is 2.75%; with mice (setting [8]), 60.96%; with mice (setting [9]) it was 36.29%; in the data set with mice (setting [10]), 7.18%; with mice (setting [11]) it was 8.27%; in the data set with mice (setting [12]), 84.55%. Besides, the “tissue-targeting specificity (lung vs spleen depending on molar percentage of compound)” value in the data set on mice (certain formulations, Table 2) was “strong tissue-targeting specificity”. Moreover, the PDI in data set [1] (setting [4]) was 0.15 ± 0.02; in data set [1] (setting [13]), 0.18 ± 0.00. For the same compound, the Particle size in data set [1] (setting [4]) is reported as 85.38 ± 0.31 nm; in data set [1] (setting [13]), 100.32 ± 0.97 nm.
Regarding `CCCCCCCCCCCCNC(=O)C(O)CN(CCCCCN(CC(O)C(=O)NCCCCCCCCCCCC)CC(O)C(=O)NCCCCCCCCCCCC)CC(O)C(=O)NCCCCCCCCCCCC` (stereo not drawn) [Compound L0307], the IVIS came to 1.43E+05 with mice (IM, DMG-PEG2000:DSPC:Chol:compound 1.40:11.15:38.95:48.50, N/P 20, Fluc-mRNA) and 4.29E+05 with mice (IV, organ not given, DMG-PEG2000:DSPC:Chol:compound 1.40:11.15:38.95:48.50, N/P 20, Fluc-mRNA). The compound also registered a PDI in data set [1] (setting [14]) of 0.25. Besides, the “Particle size (nm)” value in data set [1] (setting [14]) is on record as 178.57 nm.
The compound `CCCCCCOCOCCCCCCOC(=O)C(O)CN(C)CCCN(C)CCCN(C)CC(O)C(=O)OCCCCCCOCOCCCCCC` (stereo not drawn) [Compound L0331] had an IVIS in the data set with mice (setting [5]) of 3.39E+06. Also, the IVIS in the data set on mice (IV, organ not given, DMG-PEG2000:DSPC:Chol:compound 1.40:11.15:38.95:48.50, N/P 30, Fluc-mRNA) is given as 9.27E+05. For the same compound, in data set [1] (setting [6]), the PDI worked out at 0.06 and the “Particle size (nm)” value is reported as 122.67 nm.
For the compound `CC/C=C\CCOCOCCCCCCOC(=O)C(O)CN(C)CCN(C)CCN(C)CC(O)C(=O)OCCCCCCOCOCC/C=C\CC` (stereo not drawn) [Compound L0284], in the data set with mice (DMG-PEG2000:DSPC:Chol:Lipid 1.40:11.15:38.95:48.50, N/P 18, IM, whole body scan), the IVIS was 5.87 × 10^4. Moreover, the IVIS in the data set on mice (DMG-PEG2000:DSPC:Chol:Lipid 1.40:11.15:38.95:48.50, N/P 18, IV, whole body scan) was 2.03 × 10^5. In data set [1] (setting [15]), this compound came in with a PDI of 0.12 ± 0.02 and a Particle size of 150.97 ± 2.57 nm.
Consider `CCCCCCCCCCNC(=O)C(O)CN(CCCN(C)CCCN(CC(O)C(=O)NCCCCCCCCCC)CC(O)C(=O)NCCCCCCCCCC)CC(O)C(=O)NCCCCCCCCCC` (stereo not drawn) [Compound L0265], for which the IVIS in the data set with mice (DMG-PEG2000:DSPC:Chol:Lipid 1.00:11.50:22.50:65.00, N/P 65, IV, body) is 1.59 × 10^8; in the data set on mice (setting [16]), 7.76 × 10^6; with mice (setting [17]), 1.00 × 10^9; in the data set on mice (setting [18]), 1.53 × 10^7; in the data set on mice (DMG-PEG2000:DSPC:Chol:Lipid 1.00:16.00:48.00:35.00, N/P 35, IM, whole body scan), 6.15 × 10^7; with mice (DMG-PEG2000:DSPC:Chol:Lipid 1.00:16.00:63.00:20.00, N/P 35, IM, whole body scan), 6.47 × 10^6. Moreover, the IVIS in the data set with mice (DMG-PEG2000:DSPC:Chol:Lipid 2.50:11.50:51.00:35.00, N/P 50, IV, body) was 4.45 × 10^7; in the data set with mice (setting [19]), 6.87 × 10^6; in the data set on mice (setting [20]), 6.51 × 10^6; in the data set on mice (setting [21]), 1.88 × 10^7; in the data set on mice (IV, body, DMG-PEG2000:DSPC:Chol:compound 1.00:10.00:33.00:56.00, N/P 42, Fluc-mRNA) it was 2.04E+08; in the data set with mice (IV, liver, DMG-PEG2000:DSPC:Chol:compound 1.00:10.00:33.00:56.00, N/P 42, Fluc-mRNA), 2.18E+06. For the same compound, the IVIS with mice (IV, lung, DMG-PEG2000:DSPC:Chol:compound 1.00:10.00:33.00:56.00, N/P 42, Fluc-mRNA) is given as 3.94E+08; in the data set on mice (IV, spleen, DMG-PEG2000:DSPC:Chol:compound 1.00:10.00:33.00:56.00, N/P 42, Fluc-mRNA), 4.11E+06. Further, the “% of organ targeting” value came out at 0.76% with mice (setting [16]); 97.75% with mice (setting [17]); 1.50% in the data set on mice (setting [18]); 21.35% with mice (setting [19]); 20.23% in the data set with mice (setting [20]); 58.42% in the data set with mice (setting [21]). For the same compound, the “% of organ targeting” value with mice (IV, liver, DMG-PEG2000:DSPC:Chol:compound 1.00:10.00:33.00:56.00, N/P 42) is recorded as 0.55%; with mice (IV, lung, DMG-PEG2000:DSPC:Chol:compound 1.00:10.00:33.00:56.00, N/P 42), 98.43%; in the data set on mice (IV, spleen, DMG-PEG2000:DSPC:Chol:compound 1.00:10.00:33.00:56.00, N/P 42) it was 1.03%. The “in vivo delivery efficiency as compared to the benchmark compound SM102” value with mice (certain formulations, Table 2) was “superior in vivo delivery efficiency”. The “tissue-targeting specificity (lung vs spleen depending on molar percentage of compound)” value in the data set on mice (certain formulations, Table 2) is “strong tissue-targeting specificity”. The PDI in data set [1] (setting [22]) is on record as 0.10 ± 0.02; in data set [1] (setting [23]), 0.11 ± 0.02; in data set [1] (setting [24]), 0.11 ± 0.02; in data set [1] (setting [25]), 0.12 ± 0.01; in data set [1] (setting [26]), 0.08. The Particle size in data set [1] (setting [22]) is reported as 87.42 ± 0.32 nm; in data set [1] (setting [23]), 115.10 ± 0.87 nm; in data set [1] (setting [24]), 135.03 ± 0.67 nm; in data set [1] (setting [25]), 122.50 ± 1.15 nm. Further, the “Particle size (nm)” value in data set [1] (setting [26]) is reported as 101.60 nm.

The values are drawn from US12233161B1, “Lipids and lipid nanoparticle formulations” (LONGUIDE BIOPHARMA CORPORATION, priority 2024, dated 2025).
